Source: US9527838B2, “2-pyridinecarboxamide derivatives, compositions containing such compounds, and methods of treatment” (priority 2012, dated 2016)
Read-outs that look alike come from different tables or passages of the source.

Molecular target: Recombinant human liver glucokinase (Homo sapiens (Human), UniProt P35557)
Test: Glucokinase activation assay (G6PDH-coupled, Thio-NADH absorbance at 405 nm)
Format: biochemical
Conditions: for EC50: 30° C.
From the text: The glucokinase activity can, for instance, be determined without directly measuring glucose-6-phosphate by measuring the amount of Thio-NADH generated during the production of phosphogluconolactone from glucose-6-phosphate by a reporter enzyme glucose-6-phosphate dehydrogenase.
To test the exemplified compounds, the following assay was employed. Recombinant human liver glucokinase was expressed as a FLAG fusion protein in E. coli, and purified on […] M2 AFFINITY GEL (Sigma). The assay was carried out at 30° C. in a 96-well plate. In the plate was distributed 69 μl each of assay buffer (25 mM Hepes Buffer: pH=7.2, 2 mM MgCl2, 1 mM ATP, 0.5 mM TNAD, 1 mM dithiothreitol), to which was added 1 μl of a DMSO solution of the compound or DMSO as control. Then, 20 μl of pre-ice-cooled enzyme mixture (FLAG-GK, 20 U/ml G6PDH) was distributed thereto, to which was added 10 μl of 25 mM glucose as substrate to initiate the reaction (final glucose concentration=2.5 mM). After starting the reaction, the absorbance at 405 nm was measured every 30 seconds for 10 minutes to evaluate the compound based on the initial increase for 5 minutes. FLAG-GK was added so that the increase of absorbance after 5 minutes fell between 0.05 to 0.1 in the presence of 1% DMSO.
The OD values of the respective compounds were measured in the respective concentrations, wherein the OD value of DMSO as control is regarded as 100%.

Chain of Recombinant human liver glucokinase (P35557 other isoform, or with tags, fused parts or gaps): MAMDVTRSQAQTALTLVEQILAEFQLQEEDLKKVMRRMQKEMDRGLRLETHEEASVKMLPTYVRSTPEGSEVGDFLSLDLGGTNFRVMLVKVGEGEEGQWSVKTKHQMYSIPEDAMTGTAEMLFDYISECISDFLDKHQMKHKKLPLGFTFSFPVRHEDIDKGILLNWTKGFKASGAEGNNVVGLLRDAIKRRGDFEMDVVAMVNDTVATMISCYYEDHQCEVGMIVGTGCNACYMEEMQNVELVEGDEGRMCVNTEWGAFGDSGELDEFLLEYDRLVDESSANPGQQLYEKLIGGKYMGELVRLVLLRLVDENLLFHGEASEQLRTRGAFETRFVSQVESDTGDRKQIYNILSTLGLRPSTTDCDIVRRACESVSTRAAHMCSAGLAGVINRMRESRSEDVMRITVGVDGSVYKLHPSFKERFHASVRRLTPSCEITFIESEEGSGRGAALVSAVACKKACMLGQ

SMILES | Emax | EC50 (2.5 mM Glu) | Emax (2.5 mM Glu, OD value of DMSO as control regarded as 100%, read-out: Emax)
CCOC(=O)CSc1cnc(NC(=O)c2nc(Sc3nncn3C)ccc2Sc2ccc(OC)cc2)s1 [Example 1, Ethyl ({2-[({3-[(4-methoxyphenyl)sulfanyl]-6-[(4-methyl-4H-1,2,4-triazol-3-yl)sulfanyl]pyridin-2-yl}carbonyl)amino]-1,3-thiazol-5-yl}sulfanyl)acetate] | 471% | 7.5 nM | 
COc1ccc(Sc2ccc(Sc3nncn3C)nc2C(=O)Nc2ncc(SCC(=O)O)s2)cc1 [Example 2, ({2-[({3-[(4-methoxyphenyl)sulfanyl]-6-[(4-methyl-4H-1,2,4-triazol-3-yl)sulfanyl]pyridin-2-yl}carbonyl)amino]-1,3-thiazol-5-yl}sulfanyl)acetic acid] | 446% | 56.8 nM | 
CNC(=O)CSc1cnc(NC(=O)c2nc(Sc3nncn3C)ccc2Sc2ccc(OC)cc2)s1 [Example 3, 3-[(4-methoxyphenyl)sulfanyl]-N-(5-{[2-(methylamino)-2-oxoethyl]sulfanyl}-1,3-thiazol-2-yl)-6-[(4-methyl-4H-1,2,4-triazol-3-yl)sulfanyl]pyridine-2-carboxamide] | 572% | 10.8 nM | 
COc1ccc(Sc2ccc(Sc3nncn3C)nc2C(=O)Nc2ncc(SC(C)(C)C(=O)O)s2)cc1 [Example 4, 2-({2-[({3-[(4-methoxyphenyl)sulfanyl]-6-[(4-methyl-4H-1,2,4-triazol-3-yl)sulfanyl]pyridin-2-yl}carbonyl)amino]-1,3-thiazol-5-yl}sulfanyl)-2-methylpropanoic acid] | 417% | 65.1 nM | 
CCOC(=O)C(C)(C)CSc1cnc(NC(=O)c2nc(Sc3nncn3C)ccc2Sc2ccc(OC)cc2)s1 [Example 5, Ethyl 3-({2-[({3-[(4-methoxyphenyl)sulfanyl]-6-[(4-methyl-4H-1,2,4-triazol-3-yl)sulfanyl]pyridin-2-yl}carbonyl)amino]-1,3-thiazol-5-yl}sulfanyl)-2,2-dimethylpropanoate] | 490% | 14.3 nM | 
COc1ccc(Sc2ccc(Sc3nncn3C)nc2C(=O)Nc2ncc(SCC(C)(C)C(=O)O)s2)cc1 [Example 6, 3-({2-[({3-[(4-methoxyphenyl)sulfanyl]-6-[(4-methyl-4H-1,2,4-triazol-3-yl)sulfanyl]pyridin-2-yl}carbonyl)amino]-1,3-thiazol-5-yl}sulfanyl)-2,2-dimethylpropanoic acid] | 425% | 16 nM | 
COC(=O)CCc1cnc(NC(=O)c2nc(Sc3nncn3C)ccc2Sc2ccc(OC)cc2)s1 [Example 7, Methyl 3-{2-[({3-[(4-methoxyphenyl)sulfanyl]-6-[(4-methyl-4H-1,2,4-triazol-3-yl)sulfanyl]pyridin-2-yl}carbonyl)amino]-1,3-thiazol-5-yl}propanoate] | 550% | 23.4 nM | 
COc1ccc(Sc2ccc(Sc3nncn3C)nc2C(=O)Nc2ncc(CCC(=O)O)s2)cc1 [Example 8, 3-{2-[({3-[(4-Methoxyphenyl)sulfanyl]-6-[(4-methyl-4H-1,2,4-triazol-3-yl)sulfanyl]pyridin-2-yl}carbonyl)amino]-1,3-thiazol-5-yl}propanoic acid] | 626% | 58.7 nM | 
COc1ccc(Sc2ccc(Sc3nncn3C)nc2C(=O)Nc2ccc(CC(N)=O)cc2)cc1 [Example 9, N-[4-(2-Amino-2-oxoethyl)phenyl]-3-[(4-methoxyphenyl)sulfanyl]-6-[(4-methyl-4H-1,2,4-triazol-3-yl)sulfanyl]pyridine-2-carboxamide] | 191% | 1890 nM | 
CCOC(=O)CSc1cnc(NC(=O)c2nc(Sc3ccccn3)ccc2Sc2ccc(OC)cc2)s1 [Example 10, Ethyl ({2-[({3-[(4-methoxyphenyl)sulfanyl]-6-(pyridin-2-ylsulfanyl)pyridin-2-yl}carbonyl)amino]-1,3-thiazol-5-yl}sulfanyl)acetate] |  | 35.2 nM | 498%
COc1ccc(Sc2ccc(Sc3ccccn3)nc2C(=O)Nc2ncc(SCC(=O)O)s2)cc1 [Example 11, ({2-[({3-[(4-Methoxyphenyl)sulfanyl]-6-(pyridin-2-ylsulfanyl)pyridin-2-yl}carbonyl)amino]-1,3-thiazol-5-yl}sulfanyl)acetic acid] | 509% | 10.9 nM | 
CCOC(=O)Cc1nc(NC(=O)c2nc(Sc3ccccn3)ccc2Sc2ccc(OC)cc2)sc1Cl [Example 12] | 427% | 47.6 nM | 
COc1ccc(Sc2ccc(Sc3ccccn3)nc2C(=O)Nc2nc(CC(=O)O)c(Cl)s2)cc1 [Example 13, {5-Chloro-2-[({3-[(4-methoxyphenyl)sulfanyl]-6-(pyridin-2-ylsulfanyl)pyridin-2-yl}carbonyl)amino]-1,3-thiazol-4-yl}acetic acid] | 584% | 9 nM | 
COC(=O)CCc1cnc(NC(=O)c2nc(Sc3ccccn3)ccc2Sc2ccc(OC)cc2)s1 [Example 14, Methyl 3-{2-[({3-[(4-methoxyphenyl)sulfanyl]-6-(pyridin-2-ylsulfanyl)pyridin-2-yl}carbonyl)amino]-1,3-thiazol-5-yl}propanoate] | 486% | 290 nM | 
COc1ccc(Sc2ccc(Sc3ccccn3)nc2C(=O)Nc2ncc(CCC(=O)O)s2)cc1 [Example 15, 3-{2-[({3-[(4-Methoxyphenyl)sulfanyl]-6-(pyridin-2-ylsulfanyl)pyridin-2-yl}carbonyl)amino]-1,3-thiazol-5-yl}propanoic acid] | 645% | 140 nM | 
CCOC(=O)Cc1csc(NC(=O)c2nc(Sc3ccccn3)ccc2Sc2ccc(OC)cc2)n1 [Example 16, Ethyl {2-[({3-[(4-methoxyphenyl)sulfanyl]-6-(pyridin-2-ylsulfanyl)pyridin-2-yl}carbonyl)amino]-1,3-thiazol-4-yl}acetate] | 524% | 275 nM | 
COc1ccc(Sc2ccc(Sc3ccccn3)nc2C(=O)Nc2nc(CC(=O)O)cs2)cc1 [Example 17, {2-[({3-[(4-Methoxyphenyl)sulfanyl]-6-(pyridin-2-ylsulfanyl)pyridin-2-yl}carbonyl)amino]-1,3-thiazol-4-yl}acetic acid] | 698% | 106 nM | 
Cn1cnnc1Sc1ccc(Sc2ccc(F)cc2)c(C(=O)Nc2ncc(SCC(=O)O)s2)n1 [Example 19, ({2-[({3-[(4-Fluorophenyl)sulfanyl]-6-[(4-methyl-4H-1,2,4-triazol-3-yl)sulfanyl]pyridin-2-yl}carbonyl)amino]-1,3-thiazol-5-yl}sulfanyl)acetic acid] | 426% | 23.1 nM | 
CCOC(=O)C(C)(C)CSc1cnc(NC(=O)c2nc(Sc3nncn3C)ccc2Sc2ccc(F)cc2)s1 [Example 20] | 460% |  | 
Cn1cnnc1Sc1ccc(Sc2ccc(F)cc2)c(C(=O)Nc2ncc(SCC(C)(C)C(=O)O)s2)n1 [Example 21, 3-({2-[({3-[(4-Fluorophenyl)sulfanyl]-6-[(4-methyl-4H-1,2,4-triazol-3-yl)sulfanyl]pyridin-2-yl}carbonyl)amino]-1,3-thiazol-5-yl}sulfanyl)-2,2-dimethylpropanoic acid] | 473% | 17.2 nM | 
CCOC(=O)Cc1nc(NC(=O)c2nc(Sc3nncn3C)ccc2Sc2ccc(F)cc2)sc1Cl [Example 24, Ethyl {5-chloro-2-[({3-[(4-fluorophenyl)sulfanyl]-6-[(4-methyl-4H-1,2,4-triazol-3-yl)sulfanyl]pyridin-2-yl}carbonyl)amino]-1,3-thiazol-4-yl}acetate] | 378% | 8 nM | 
Cn1cnnc1Sc1ccc(Sc2ccc(F)cc2)c(C(=O)Nc2nc(CC(=O)O)c(Cl)s2)n1 [Example 25, {5-Chloro-2-[({3-[(4-fluorophenyl)sulfanyl]-6-[(4-methyl-4H-1,2,4-triazol-3-yl)sulfanyl]pyridin-2-yl}carbonyl)amino]-1,3-thiazol-4-yl}acetic acid] | 525% | 18.6 nM | 
CCOP(=O)(Cc1cnc(NC(=O)c2nc(Sc3nncn3C)ccc2Sc2ccc(F)cc2)s1)OCC [Example 26, Diethyl ({2-[({3-[(4-fluorophenyl)sulfanyl]-6-[(4-methyl-4H-1,2,4-triazol-3-yl)sulfanyl]pyridin-2-yl}carbonyl)amino]-1,3-thiazol-5-yl}methyl)phosphonate] | 377% | 136 nM | 
CCOC(=O)CSc1cnc(NC(=O)c2nc(Sc3ccc(F)cc3)ccc2Sc2ccc(F)cc2)s1 [Example 27] | 182% |  | 
O=C(O)CSc1cnc(NC(=O)c2nc(Sc3ccc(F)cc3)ccc2Sc2ccc(F)cc2)s1 [Example 28, ({2-[({3,6-Bis[(4-fluorophenyl)sulfanyl]pyridin-2-yl}carbonyl)amino]-1,3-thiazol-5-yl}sulfanyl)acetic acid] | 343% | 172 nM | 
CCOC(=O)Cc1nc(NC(=O)c2nc(Sc3ccc(F)cc3)ccc2Sc2ccc(F)cc2)sc1Cl [Example 29, Ethyl {2-[({3,6-bis[(4-fluorophenyl)sulfanyl]pyridin-2-yl}carbonyl)amino]-5-chloro-1,3-thiazol-4-yl}acetate] | 158% |  | 
O=C(O)Cc1nc(NC(=O)c2nc(Sc3ccc(F)cc3)ccc2Sc2ccc(F)cc2)sc1Cl [Example 30, {2-[({3,6-Bis[(4-fluorophenyl)sulfanyl]pyridin-2-yl}carbonyl)amino]-5-chloro-1,3-thiazol-4-yl}acetic acid] | 393% | 16.3 nM | 
